In patent US20090156477A1, “Compositions and Methods for Regulating Inflammatory Responses” (Massachusetts Institute of Technology, priority 2005, published 2009):

B1: FGF7: Recombinant human FGF7 from Sigma (protein, UniProt P21781 32-194, looked up)
Fibroblast growth factor 7: CNDMTPEQMATNVNCSSPERHTRSYDYMEGGDIRVRRLFCRTQWYLRIDKRGKVKGTQEMKNNYNIMEIRTVAVGIVAIKGVESEFYLAMNKEGKLYAKKECNEDCNFKELILENHYNTYASAKWTHNGGEMFVALNQKGIPVRGKKTKKEQKTAHFLPMAIT

Tests used:
Assay type in all cases: cell-based, human
[1] = test system: Caco-2 cells; test: Caco-2 proliferation assay (whole cell number); conditions: for increased whole cell number: 100 ng/ml ligand, three days, vs PBS control
Method: Caco-2 cells were grown to just prior to confluence, and T84 cells were grown to confluence. Each flask was washed with 20 ml PBS and treated with 3 ml trypsin-EDTA at 37° C. for 20-60 minutes until cells detached. Cells were centrifuged for 3 minutes at 195×g. The supernatant was aspirated, and the cells were resuspended in 10 ml media. The cell density was measured using an electronic cell counter, and the suspension was diluted to 50,000 cells/ml. The suspension was plated at 1 ml/well into 12-well tissue culture plates. After a 24 hour incubation in a 5% CO2, 37° C. humidified incubator, the media was aspirated, the wells were washed with serum free media, and the cells were supplemented with media containing 0.1% FBS. The wells were then supplemented with 10 μl PBS, 50 mM sodium chlorate, or 200 μM TM, and incubated for 24 hours. Subsequently, cells were supplemented with 100 ng/ml FGF1, FGF2, FGF7, or 10 μl PBS, and incubated for 72 hours. Wells were then washed twice with PBS and treated with 0.5 ml trypsin-EDTA/well and incubated at 37° C. until cells detached. Whole cell number was determined using an electronic cell counter. Data was averaged over three experiments, each consisting of four wells per condition.

[2] = test system: T84 cells; test: Transepithelial resistance (TER) of T84 monolayers; conditions: for inhibited TER increases: 100 ng/ml ligand, three days (72 hours) after addition, percent reduction in TER compared to PBS treated cells; for reduced resistance on day 5: ligand added on day 0 and day 2, compared to untreated cells
Method: Caco-2 cells were grown close to confluence, and T84 cells were grown to confluence. The apical chambers of transwell plates with 6.5 mm diameter and 3 μm pore size filters were pretreated with 50 μl of 45 μg/ml collagen IV in 60% ethanol 24 hours prior to plating and incubated overnight at room temperature. After reaching confluence, cells were washed with 20 ml PBS and treated with 3.5 ml trypsin-EDTA per 175 cm^2 flask for 20-60 min at 37° C. until cells detached. Cells were resuspended in 16.5 ml media appropriate to the cell type. Each apical chamber was supplemented with 82 μl cell solution. The basolateral chamber was filled with 1 ml propagation media. Filters were fed with new media every two days over the course of experiments.
Caco-2 and T84 cells were allowed to grow on transwells to form monolayers. Monolayer formation was examined every other day by light microscopy as well as by transepithelial resistance (TER) measurements using an EVOM ohmmeter (World Precision Instruments, Sarasota, Fla.). After monolayer formation, cells were treated with 100 ng/ml FGF1, 100 ng/ml FGF2, 100 ng/ml FGF7 or an equivalent volume (10 μl) of PBS. TER measurements were made either after 72 hours or at each of the 30 minutes, 1 hour, 2 hours, 4 hours, 9 hours, 24 hours and 48 hours timepoints. To determine the effects of multiple additions of ligand, FGFs or PBS were added initially and again after 2 days, and TER measurements were made after 0, 2 and 5 days.
To probe the mechanism by which various FGFs induced cell mediated effects, various media treatments were employed. Ammonium tetrathiomolybdate (TM) was added 24 hours prior to the addition of ligands to yield a final concentration of 200 μM, sufficient to prevent the release of FGF1 [3]. Similarly, sodium chlorate, which reduces cell HSPGs and the sulfation of associated HSGAGs, was added 24 hours prior to the addition of ligands to yield a final concentration of 50 mM [33,34]. Antibodies and kinase inhibitors were added immediately prior to ligands. Antibodies to FGF1, FGFR1 and FGFR3 were added at a 1:100 dilution. Kinase inhibitors were added to yield final concentrations of 50 μM LY294002, 20 μM PD98059, 1 μM SB203580. All experiments were performed in triplicate.

[3] = test system: E-cadherin; test: Immunohistochemistry for E-cadherin in Caco-2 cells; conditions: for E-cadherin localization after 24 hours: vs 1 hour and vs PBS and FGF1
Method: Caco-2 cells were grown to just prior to confluency on collagen IV coated glass slides. Cells were treated with PBS, FGF1, FGF2 and FGF7, and were incubated at 37° C. in a 5% CO2 humidified incubator for 1 hour, 4 hours, 24 hours or 48 hours, as noted. Cells were washed with PBS, fixed with 3.7% formalin for 10 minutes and washed again with PBS. Cells were treated with 0.1% Triton x-100 for 5 minutes to extract lipids. Cells were washed with PBS and preincubated with PBS supplemented with 1% bovine serum albumin. Primary antibodies were added for 4 hours at room temperature, and cells were washed with PBS. Primary antibodies used were as follows: rabbit anti-human ZO-1 (1:160; Zymed Laboratories, San Francisco, Calif.); mouse anti-human syndecan-1 (1:300; Santa Cruz Biotechnology); goat anti-human Fz-1 (1:125; Santa Cruz Biotechnology); rabbit anti-human caveolin-1 (1:250; Santa Cruz Biotechnology); goat anti-human glypican-1 (1:100; Santa Cruz Biotechnology); mouse anti-human E-cadherin (1:250; Zymed Laboratories); rabbit anti-human β-catenin (1:125; Cell Signaling Technology, Beverly, Mass.); and rabbit anti-human phospho-β-catenin (Ser33/37/Thr41; 1:125; Cell Signaling Technology, Beverly, Mass.).
Cells were then treated with secondary antibodies, Texas Red-labeled phalloidin (Molecular Probes, Eugene, Oreg.) or FLAER-FL1 (1:400; Protox Biotech, Victoria, BC, Canada) as appropriate for 1 hour in the dark at room temperature. Secondary antibodies used were as follows: FITC-labeled chicken anti-rabbit (for ZO-1; 1:100; Molecular Probes, Eugene, Oreg.); Texas Red-labeled goat-anti mouse (for syndecan-1; 1:400; Molecular Probes); FITC-labeled donkey anti-mouse (for syndecan-1; 1:400; Molecular Probes, Eugene, Oreg.); FITC-labeled rabbit anti-mouse (for syndecan-1 and E-cadherin; 1:500; Molecular Probes, Eugene, Oreg.); Texas Red-labeled rabbit anti-goat (for Fz-1; 1:200; Jackson ImmunoResearch Laboratories, West Grove, Pa.); Texas Red-labeled goat anti-rabbit (for caveolin-1, β-catenin and phospho-β-catenin; 1:500; Molecular Probes); and Texas Red-labeled donkey anti-goat (for glypican-1; 1:80; Research Diagnostics, Flanders, N.J.).
Cells, except those stained with phalloidin, were washed with PBS and stained with diamidino-2-phenylindole (DAPI) for 5 minutes at room temperature (Molecular Probes). Controls of no antibody, primary antibody only, and secondary antibody only were performed. Cells were examined by confocal microscopy (ZO-1 and phalloidin only), or by fluorescence microscopy. A Nikon HB10101AF fluorescence microscope was used and images were captured at room temperature using a Hitachi HVC20 camera and Scion image acquisition software. Images were processed using Adobe Photoshop 7.0 and Adobe Illustrator 10.0.

Row | Molecule | effect of added agent on proliferative effect of FGF2 and FGF7 ([1]; TM 200 μM, FGF1 added to TM treated cells) | proliferation (in words) ([1]; over three days) | inhibited TER increases [2] | reduced TER at 48 hours ([2]; 100 ng/ml, 48 hours) | effect of added agent on FGF-induced reduction in TER ([2]; agent given before or with 100 ng/ml FGFs (TM 200 μM, sodium chlorate 50 mM, LY294002 50 μM, antibodies 1:100)) | E-cadherin localization after 1 hour [3] | E-cadherin localization after 24 hours [3] | increased whole cell number [1] | reduced resistance on day 5 [2]
1 | FGF1: Recombinant human FGF1 from Amgen | restored the proliferative capacity of these ligands | did not induce the proliferation | 30.1±1.5% | 22.7±3.2% | restored TER reductions |  |  |  | 
2 | FGF2: Recombinant human FGF2, produced as described |  |  | 43.4±16.6% |  |  | altered E-cadherin localization | more cytoplasmic localization | 20.2±7.4% | 41.7±8.1%
3 | B1 |  |  | 54.6±7.6% |  |  | altered E-cadherin localization | more cytoplasmic localization | 16.4±8.9% | 37.3±3.5%
